Experimental data reported in patent publication US12171755B2, “PAPD5 inhibitors and methods of use thereof” (Children's Medical Center Corporation, priority 2017, dated 2024).

Target: T1, PAPD5 (Homo sapiens, UniProt Q8NDF8)
T1 construct: made in house
Assay: High-throughput luminescence (KinaseGlo) RNA polyadenylation assay, ATP utilization by recombinant PAPD5
Type: biochemical
Settings: Table 4 (entries of Table 5), ratio of luminescence with inhibitor to DMSO; for Fold-change determined at compound concentration 33 μM: 33 μM compound; for Fold-change determined at compound concentration 100 μM: 100 μM compound, higher = higher inhibition
Experimental: Optimal conditions for an in vitro RNA polyadenylation assay using recombinant PAPD5, ATP and an oligonucleotide substrate were identified. The HTS assay involved ATP utilization by PAPD5, which reads out as a decreased luminescence signal produced by luciferase (KinaseGlo, Promega, Madison, WI).
100 nl of compound dissolved in DMSO was transferred to each well of the assay plate via pin transfer. For negative control wells, DMSO alone was added. Plates were gently vortexed for 5 seconds, then incubated for 2 hours at room temperature.
After 2 hours, 5 ul of luciferase (Promega KinaseGlo, Madison, WI) was added using a MultiDrop Combi (Thermo Fisher Scientific, Waltham, MA). The mixture was gently vortexed for 5 seconds and incubated for 10 minutes at room temperature. Plates were spun for 1 minute prior to luminescence measurements. Luminescent measurements were quantitated using a PerkinElmer EnVision™ plate reader.
˜100,000 compounds from various libraries at the ICCB-Longwood were screened in this manner in duplicate.
The fold change was the ratio of luminescence from a sample with inhibitor compared to that with DMSO. Thus, a higher number indicates higher inhibition.

T1 sequence (Q8NDF8 68-698 isoform Q8NDF8-5): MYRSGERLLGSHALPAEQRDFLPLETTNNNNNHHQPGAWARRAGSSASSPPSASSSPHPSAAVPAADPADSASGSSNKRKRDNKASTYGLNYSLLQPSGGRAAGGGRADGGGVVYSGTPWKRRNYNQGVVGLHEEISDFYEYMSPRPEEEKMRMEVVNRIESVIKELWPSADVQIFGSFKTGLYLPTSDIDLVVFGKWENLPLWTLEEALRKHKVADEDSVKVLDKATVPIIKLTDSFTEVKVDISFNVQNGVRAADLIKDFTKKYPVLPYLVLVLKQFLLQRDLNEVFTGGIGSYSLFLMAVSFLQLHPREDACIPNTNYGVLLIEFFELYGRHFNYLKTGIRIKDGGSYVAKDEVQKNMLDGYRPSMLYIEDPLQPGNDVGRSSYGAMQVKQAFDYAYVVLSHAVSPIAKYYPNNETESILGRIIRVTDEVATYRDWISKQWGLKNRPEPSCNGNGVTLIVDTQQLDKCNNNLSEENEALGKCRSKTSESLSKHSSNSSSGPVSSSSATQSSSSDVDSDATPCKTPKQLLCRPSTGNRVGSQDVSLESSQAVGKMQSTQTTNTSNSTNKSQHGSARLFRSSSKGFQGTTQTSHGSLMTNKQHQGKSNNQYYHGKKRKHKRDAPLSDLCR

## O=c1oc2cc(OCc3nnn[nH]3)c(Cl)cc2c2c1CCC2 [Entry 133, 8-chloro-7-(1H-tetrazol-5-ylmethoxy)-2,3-dihydrocyclopenta[c]chromen-4(1H)-one]
  Fold-change determined at compound concentration 33 μM: 1.186
  Fold-change determined at compound concentration 100 μM: 1.508

## Cn1c(=O)c2nc(SCCC(=O)O)n(Cc3ccc(F)cc3)c2n(C)c1=O [Entry 78, 3-{[9-(4-fluorobenzyl)-1,3-dimethyl-2,6-dioxo-2,3,6,9-tetrahydro-1H-purin-8-yl]sulfanyl}propanoic acid]
  Fold-change determined at compound concentration 33 μM: 1.05
  Fold-change determined at compound concentration 100 μM: 1.26

## O=C(NCc1ccncc1)C1CCCN(c2ncnc3c2oc2ccccc23)C1 (centres unmarked) [Entry 36, 1-([1]benzofuro[3,2-d]pyrimidin-4-yl)-N-(pyridin-4-ylmethyl)piperidine-3-carboxamide]
  Fold-change determined at compound concentration 33 μM: 1.096
  Fold-change determined at compound concentration 100 μM: 1.239

## COc1ccc(-c2n[nH]c3nc(-c4ccc(O)c(O)c4)cc(C(=O)O)c23)cc1 [Entry 178, 6-(3,4-dihydroxyphenyl)-3-(4-methoxyphenyl)-1H-pyrazolo[3,4-b]pyridine-4-carboxylic acid]
  Fold-change determined at compound concentration 33 μM: 1.217
  Fold-change determined at compound concentration 100 μM: 1.633

## COc1cc2[nH]c3c(SCC(N)=O)ncnc3c2cc1OC [Entry 224, 2-[(7,8-dimethoxy-5H-pyrimido[5,4-b]indol-4-yl)sulfanyl]acetamide]
  Fold-change determined at compound concentration 33 μM: 1.193
  Fold-change determined at compound concentration 100 μM: 1.37

## CCOC(=O)c1ccc(NC(=O)CCc2c(C)nc3c(c(C)nn3C)c2C)cc1 [Entry 184, ethyl 4-[3-(1,3,4,6-tetramethylpyrazolo[3,4-b]pyridin-5-yl)propanoylamino]benzoate]
  Fold-change determined at compound concentration 33 μM: 1.245
  Fold-change determined at compound concentration 100 μM: 1.294

## O=C(O)c1cccc(Nc2c(-c3cc(Br)ccc3O)nc3cnccn23)c1 [Entry 193, 3-{[2-(5-bromo-2-hydroxyphenyl)imidazo[1,2-a]pyrazin-3-yl]amino}benzoic acid]
  Fold-change determined at compound concentration 33 μM: 1.134
  Fold-change determined at compound concentration 100 μM: 1.446

## Cc1ccc(Cl)cc1NCc1nc2[nH]c3c(c(=O)n2n1)CCC3 [Entry 154, 2-{[(5-chloro-2-methylphenyl)amino]methyl}-4,5,6,7-tetrahydro-8H-cyclopenta[d][1,2,4]triazolo[1,5-a]pyrimidin-8-one]
  Fold-change determined at compound concentration 33 μM: 1.013
  Fold-change determined at compound concentration 100 μM: 1.282

## 3-{7-Oxo-2.8.10- triazatricyclo[7.4.0.02,6]trideca- 1(13),3,5,9,11-pentaen-8-yl}propionic acid [Entry 68]
  Fold-change determined at compound concentration 33 μM: 1.162
  Fold-change determined at compound concentration 100 μM: 1.389

## COc1ccc(-c2coc3c2c(C)cc2oc(=O)c(CC(=O)O)c(C)c23)cc1 [Entry 132, [3-(4-methoxyphenyl)-4,9-dimethyl-7-oxo-7H-furo[2,3-f]chromen-8-yl]acetic acid]
  Fold-change determined at compound concentration 33 μM: 1.303
  Fold-change determined at compound concentration 100 μM: 1.774

## O=C(CCCn1c(=O)c2cccn2c2ccc(Br)cc21)N1CCCC1 [Entry 65, 7-bromo-5-(4-oxo-4-pyrrolidin-1-ylbutyl)pyrrolo[1,2-a]quinoxalin-4-one]
  Fold-change determined at compound concentration 33 μM: 1.23
  Fold-change determined at compound concentration 100 μM: 1.394

## O=c1c(S(=O)(=O)c2cccc(F)c2)c[nH]c2c(F)c(Cl)ccc12 [Entry 104, 7-chloro-8-fluoro-3-(3-fluorophenyl)sulfonyl-1H-quinolin-4-one]
  Fold-change determined at compound concentration 33 μM: 1.048
  Fold-change determined at compound concentration 100 μM: 1.235

## O=C(O)c1cccn2c(=O)c3c4c(sc3nc12)CCCC4 [Entry 215, 12-oxo-1,2,3,4-tetrahydro-12H-[1]benzothieno[2,3-d]pyrido[1,2-a]pyrimidine-7-carboxylic acid]
  Fold-change determined at compound concentration 33 μM: 1.074
  Fold-change determined at compound concentration 100 μM: 2.037

## O=C(O)CSc1nnc2n(-c3ccccc3)c3ccccc3n12 [Entry 229, [(9-Phenyl-9H-[1,2,4]triazolo[4,3-a]benzimidazol-3-yl)thio]acetic acid]
  Fold-change determined at compound concentration 33 μM: 1.249
  Fold-change determined at compound concentration 100 μM: 1.704

## CCOC(=O)c1c(C)nc2n(C)c3ccccc3n12 [Entry 228, ethyl 2,9-dimethyl-9H-benzo[d]imidazo[1,2-a]imidazole-3-carboxylate]
  Fold-change determined at compound concentration 33 μM: 1.146
  Fold-change determined at compound concentration 100 μM: 1.3

## O=C(NC1CC1)c1ccc(Cn2c(SCc3ccccc3Cl)nc3ccncc32)cc1 [Entry 202, 4-({2-[(2-chlorobenzyl)thio]-3H-imidazo[4,5-c]pyridin-3-yl]methyl)-N-cyclopropylbenzamide]
  Fold-change determined at compound concentration 33 μM: 1.164
  Fold-change determined at compound concentration 100 μM: 1.361

## Cc1ccc2[nH]c(=O)c3cc(C(=O)O)sc3c2c1 [Entry 220, 8-methyl-4-oxo-5H-thieno[3,2-c]quinoline-2-carboxylic acid]
  Fold-change determined at compound concentration 33 μM: 1.068
  Fold-change determined at compound concentration 100 μM: 1.277

## CCCCN(C)c1cc(C(=O)O)c2cc(NC(=O)c3ccccc3OC)ccc2n1 [Entry 31, 2-[butyl(methyl)amino]-6-[(2-methoxybenzoyl)amino]quinoline-4-carboxylic acid]
  Fold-change determined at compound concentration 33 μM: 1.304
  Fold-change determined at compound concentration 100 μM: 1.895

## COc1ccc(Br)cc1[C@@H]1Nc2ccc(C(=O)O)cc2[C@@H]2C=CC[C@@H]21 [Entry 99, (3aS,4R,9bR)-4-(5-bromo-2-methoxyphenyl)-3a,4,5,9b-tetrahydro-3H-cyclopenta[c]quinoline-8-carboxylic acid]
  Fold-change determined at compound concentration 33 μM: 1.233
  Fold-change determined at compound concentration 100 μM: 1.91

## O=c1oc2cc(O)c(O)cc2c2c1CCCC2 [Entry 118, 2,3-dihydroxy-7,8,9,10-tetrahydro-6H-benzo[c]-chromen-6-one]
  Fold-change determined at compound concentration 33 μM: 1.195
  Fold-change determined at compound concentration 100 μM: 1.615

## O=C(O)C1CCCN(c2nc3c(-c4ccccc4)csc3c(=O)[nH]2)C1 (centres unmarked) [Entry 39, 1-(4-oxo-7-phenyl-3,4-dihydrothieno[3,2-d]pyrimidin-2-yl)piperidine-3-carboxylic acid]
  Fold-change determined at compound concentration 33 μM: 1.19
  Fold-change determined at compound concentration 100 μM: 1.527

## COc1ccc(C(=O)N2CCc3ccc(CNS(C)(=O)=O)cc32)cc1 [Entry 221, N-[[1-(4-methoxybenzoyl)-2,3-dihydroindol-6-yl]methyl]methanesulfonamide]
  Fold-change determined at compound concentration 33 μM: 1.084
  Fold-change determined at compound concentration 100 μM: 1.585

## CCc1ccccc1NC(=O)Cc1c(C(=O)O)[nH]c2ccc(Cl)cc12 [Entry 110, 5-chloro-3-[2-(2-ethylanilino)-2-oxoethyl]-1H-indole-2-carboxylic acid]
  Fold-change determined at compound concentration 33 μM: 1.126
  Fold-change determined at compound concentration 100 μM: 1.298

## CC(C)n1cnc2c(Nc3ccc(C(=O)O)cc3)nc(Cl)nc21 [Entry 47, 4-[(2-chloro-9-propan-2-ylpurin-6-yl)amino]benzoic acid]
  Fold-change determined at compound concentration 33 μM: 1.095
  Fold-change determined at compound concentration 100 μM: 1.393

## CCCn1c(=O)c2cc(F)ccc2n2c(=S)[nH]nc12 [Entry 72, 7-fluoro-4-propyl-1-thioxo-2,4-dihydro[1,2,4]triazolo[4,3-a]quinazolin-5(1H)-one]
  Fold-change determined at compound concentration 33 μM: 1.099
  Fold-change determined at compound concentration 100 μM: 1.256

## Cc1ccc(Cn2c(SCc3ccc(C(=O)O)cc3)nc3cccnc32)cc1 [Entry 238, 4-[[3-[(4-methylphenyl)methyl]imidazo[4,5-b]pyridin-2-yl]sulfanylmethyl]benzoic acid]
  Fold-change determined at compound concentration 33 μM: 1.119
  Fold-change determined at compound concentration 100 μM: 1.238

## Cc1ccc(-c2n[nH]c3nc(-c4ccc(O)c(O)c4)cc(C(=O)O)c23)cc1 [Entry 180, 6-(3,4-dihydroxyphenyl)-3-(p-tolyl)-1H-pyrazolo[3,4-b]pyridine-4-carboxylic acid]
  Fold-change determined at compound concentration 33 μM: 1.303
  Fold-change determined at compound concentration 100 μM: 1.736

## Cc1csc(-c2cc(S(=O)(=O)Nc3cc(C)nc4ccccc34)c(C)s2)n1 [Entry 29, 2-methyl-N-(2-methylquinolin-4-yl)-5-(4-methyl-1,3-thiazol-2-yl)thiophene-3-sulfonamide]
  Fold-change determined at compound concentration 33 μM: 1.073
  Fold-change determined at compound concentration 100 μM: 1.22
